The text below walks through data of US20210253562A1, “ACYLSUFONAMIDE COMPOUNDS USEFUL AS EP3 RECEPTOR ANTAGONISTS” (Janssen Pharmaceutica NV, priority 2018, published 2021).

The target of assay [1] is T1, CHO cells over-expressing the EP3 receptor (Homo sapiens, UniProt P43115).
T1 construct: expressed in transfected cells; host or cells: CHO cells
T1 sequence (P43115 1-390): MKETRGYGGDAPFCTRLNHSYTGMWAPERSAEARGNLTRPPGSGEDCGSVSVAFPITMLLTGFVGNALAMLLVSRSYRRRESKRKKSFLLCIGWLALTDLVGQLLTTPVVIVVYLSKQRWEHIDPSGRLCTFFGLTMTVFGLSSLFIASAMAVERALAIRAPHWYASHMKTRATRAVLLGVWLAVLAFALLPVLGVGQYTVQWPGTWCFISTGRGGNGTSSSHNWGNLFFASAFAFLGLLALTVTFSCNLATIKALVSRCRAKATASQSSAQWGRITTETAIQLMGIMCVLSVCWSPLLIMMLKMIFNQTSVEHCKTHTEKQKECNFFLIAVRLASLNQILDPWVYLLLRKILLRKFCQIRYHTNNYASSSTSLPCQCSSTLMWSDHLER
Briefly: CHO cell cAMP assay; EP3 cAMP antagonist dose response (sulprostone reference), HTRF. Type of assay: cell-based. Conditions: sulprostone 700 nM (EC80) and FSK 2 μM (EC70); read-out: CHO_cAMP IC50. As for the experimental part: Biological Example 2: CHO Cell cAMP Assay
This assay monitored the cAMP generation in CHO cells over-expressing the EP3 receptor in the presence or absence of antagonist stimulated with Forskolin (FSK, CAS No. 66428-89-5) and a known EP3 Agonist (sulprostone, CAS No. 60325-46-4). For detection, a homogeneous competitive immunoassay (Time Resolved Fluorescence Energy Transfer (hTR-FRET)) was used.
Cells (6K cells per well) were plated in Poly-D-Lysine coated plates the day before the assay was to be run and were incubated at 37° C. One hour before the assay the media was removed and replaced with assay buffer (500 mL HBSS (+Ca)+2.5 mL 1M HEPES+6.66 mL 7.5% BSA) (starved at 37° C.). At the start of the assay the buffer was removed from the cells and replaced with buffer containing test compound(s). Sulprostone at an EC80 dose (700 nM) and FSK at an EC70 dose (2 μM) were added to initiate the reaction (37° C. for 30 minutes).
FSK increases cAMP production and sulprostone decreases cAMP production produced by FSK. In this assay, EP3 antagonists will increase the cAMP to the level of cAMP generated by FSK alone.
The reaction was terminated with the addition of cAMP detection reagents (labeled cAMP and labeled cAMP antibody in lysis buffer (HTRF reagent, which utilizes a cryptate-labeled anti-cAMP and d2-labeled cAMP-d2 is an HTRF acceptor fluorophore)). Approximately one hour later the plates were read on an Envision (Perkin Elmer) in HTRF mode. Well results were calculated based on a ratio of counts at 665 nm and 615 nm (data output was a calculation of the ratio: (read @665 nm/read @ 615 nm)*1000. For test compounds dosed serially, well results were converted to nM cAMP using a cAMP standard run on each plate. nM cAMP from a set of wells dosed with test compound(s) were plotted. nM cAMP was calculated for each well from a standard curve located on each plate (P1-12 and P13-24) by first calculating the slope and deriving the intercept(b):
[formula] NScAMP_s tan dard_cruve=m(nM cAMP_s tan dard_curve)+b
NSP, NSN, NSsample were converted to nM cAMP using the following equation: […]
IC50 values were determined from a […] (Hill equation) of a single 11-point compound dosing. A best-fit curve was determined by the minimum sum of squares method plotting cAMP produced vs compound concentration.
(In general: Cyclic AMP is a second messenger, typically raised through Gs and lowered through Gi signalling.)

Assay [2] concerns the target T2, EP3 membrane (EP3 receptor) (Homo sapiens, UniProt P43115).
T2 construct: purchased Millipore HTS092M
T2 sequence (P43115 1-390): T1 sequence (P43115 1-390)
Briefly: [3H]-PGE2 binding; EP3 competition binding (SPA). As for the experimental part:
Biological Example 1: [3H]-PGE2 Binding
EP3 competition binding was determined using the following materials and experimental conditions: • Beads=Perkin Elmer RPNQ0001 • [3H]PGE2=Perkin Elmer NET428025UC • 384-well plate=Perkin Elmer 6007290 • EP3 membrane=Millipore HTS092M • Membrane concentration=2 μg/well • Beads concentration=0.25 mg/well • [3H]-PGE2=2 nM; DMSO—0.1% • Binding buffer=50 mM Tris, 10 mM MgCl2, 1 mM EDTA, PH 7.4.
The reaction system was prepared by mixing 5 μl of unlabeled compound; 5 μl of diluted [3H]-PGE2; 5 μl of diluted membrane; and 15 μl of SPA beads dissolved in binding buffer (adding in the following sequence: Unlabeled compound, [3H]-PGE2, Membrane and Beads).
The binding buffer was removed from refrigeration (@ 4° C.) and allowed to warm to room temperature. Test compound (@ stock concentration of […] in DMSO) was serial dilutes (1:3) with 100% DMSO using Echo plate. Diluted test compound (30 nL) was dispensed to the 384-well assay plate (using Echo 550 Labcyte System). To each well was then added assay buffer (5 μl) and each well was spun. Beads were weighed out, dissolved in assay buffer to a concentration of 0.25 mg/15 μl. Original membrane was diluted with assay buffer to a concentration of 2 μg/5 μl. Original [3H]-PGE2 with diluted with assay buffer to a concentration of 12 nM. To each test well were then added diluted [3H]-PGE2 (5 μl), diluted membrane (5 μl), and dissolved beads (15 μl). The plate was equilibrated at room temperature on a plate shaker for 2 hours and then read with a TOPCOUNT scintillation plate reader. Results were analyzed using a Prism program with non-linear regression, one-site fit for Ki.

SMILES strings stand for the structures. Several values for one entry are separate records, joined by “and”; a condition that tells them apart may be missing. Equal values may be shown once. Read-outs that look alike come from different tables or passages of the source.

Consider `O=C(C/C=C1\CCCc2cnn(Cc3ccc(Cl)cc3Cl)c21)NS(=O)(=O)c1cccs1` [Compound #20, (E)-3-(1-(2,4-dichlorobenzyl)-1,4,5,6-tetrahydro-7H-indazol-7-ylidene)-N-(thiophen-2-ylsulfonyl)propenamide], for which the IC50 (usually the concentration at which inhibition is half-maximal) in assay [1] is 1 µM. Moreover, in assay [2], the Ki (usually the equilibrium dissociation constant of an inhibitor or competing ligand from its target) stood at 280 nM.

On to `COc1ccc(Cn2ncc3c2/C(=C(\F)CNC(=O)NS(=O)(=O)c2cc(Cl)c(Cl)s2)CCC3)cn1` [Compound #141, (Z)-4,5-dichloro-N-((2-fluoro-2-(1-((6-methoxypyridin-3-yl)methyl)-1,4,5,6-tetrahydro-7H-indazol-7-ylidene)ethyl)carbamoyl)thiophene-2-sulfonamide], for which the IC50 in assay [1] came to 0.75 µM. The same compound had a Ki in assay [2] of 215 nM.

`O=C(NC/C=C1\CCCc2cnn(-c3ccc4ccccc4c3)c21)NS(=O)(=O)c1cc(Cl)c(Cl)s1` [Compound #79, (E)-4,5-dichloro-N-((2-(1-(naphthalen-2-yl)-1,4,5,6-tetrahydro-7H-indazol-7-ylidene)ethyl)carbamoyl)thiophene-2-sulfonamide]: the IC50 in assay [1] is 0.002 µM. This compound also returned a Ki in assay [2] (unit nM) of 0.4 nM.

Turning to `COc1ccc(-n2ncc3c2/C(=C/CNC(=O)NS(=O)(=O)c2ccc(Cl)cc2)CCC3)cn1` [Compound #105, (E)-4-chloro-N-((2-(1-(6-methoxypyridin-3-yl)-1,4,5,6-tetrahydro-7H-indazol-7-ylidene)ethyl)carbamoyl)benzenesulfonamide], the IC50 in assay [1] was 0.294 µM. This compound yielded a Ki in assay [2] of 238 nM.

In the case of `O=C(NC/C(F)=C1/CCCc2cnn(Cc3ccc(Cl)cc3Cl)c21)NS(=O)(=O)c1cc(Cl)c(Cl)s1` [Compound #45, (E)-4,5-dichloro-N-((2-(1-(2,4-dichlorobenzyl)-1,4,5,6-tetrahydro-7H-indazol-7-ylidene)-2-fluoroethyl)carbamoyl)thiophene-2-sulfonamide], the half-inhibitory concentration (IC50) in assay [1] was found to be 6.7 µM. The compound further yielded an inhibitory constant (Ki) in assay [2] of 1300 nM.

As to `COc1ccc(F)cc1S(=O)(=O)NC(=O)NC/C(F)=C1\CCCc2cnn(-c3ccc4ccccc4c3)c21` [Compound #113, (Z)-5-fluoro-N-((2-fluoro-2-(1-(naphthalen-2-yl)-1,4,5,6-tetrahydro-7H-indazol-7-ylidene)ethyl)carbamoyl)-2-methoxybenzenesulfonamide], the IC50 in assay [1] is 6.9 µM. Also, the affinity in assay [2], expressed as Ki, was 4100 nM.

`O=C(NC/C(F)=C1\CCc2cnn(Cc3ccc(Cl)cc3Cl)c21)NS(=O)(=O)c1cc(Cl)c(Cl)s1` [Compound #136, (Z)-4,5-dichloro-N-((2-(1-(2,4-dichlorobenzyl)-4,5-dihydro-cyclopenta[c]pyrazol-6(1H)-ylidene)-2-fluoroethyl)carbamoyl)thiophene-2-sulfonamide]: the IC50 in assay [1] worked out at 0.046 µM. This compound had a Ki in assay [2] of 5 nM.

Turning to `COc1ccc(Cl)c(S(=O)(=O)NC(=O)NC/C=C2\COCc3cnn(Cc4ccc(Cl)cc4Cl)c32)c1` [Compound #65, (Z)-2-chloro-N-((2-(1-(2,4-dichlorobenzyl)-1,4-dihydropyrano[4,3-c]pyrazol-7(6H)-ylidene)ethyl)carbamoyl)-5-methoxybenzenesulfonamide], the concentration for half-maximal inhibition (IC50) in assay [1] was 0.044 µM. In assay [2], this compound yielded an inhibition constant (Ki) of 27 nM.

With `O=C(NC/C=C1\CC(F)(F)Cc2cnn(-c3cccc(C(F)(F)F)c3)c21)NS(=O)(=O)c1ccc(Cl)cc1` [Compound #70, (E)-4-chloro-N-((2-(5,5-difluoro-1-(3-(trifluoromethyl)phenyl)-1,4,5,6-tetrahydro-7H-indazol-7-ylidene)ethyl)carbamoyl)benzenesulfonamide], the IC50 in assay [1] is 8.2 µM. In assay [2], the Ki was 1000 nM.

With `O=C(CC/C=C1\CCCc2cnn(Cc3ccc(Cl)cc3Cl)c21)NS(=O)(=O)c1ccc(Cl)cc1` [Compound #24, (E)-N-((4-chlorophenyl)sulfonyl)-4-(1-(2,4-dichlorobenzyl)-1,4,5,6-tetrahydro-7H-indazol-7-ylidene)butanamide], the 50% inhibitory concentration (IC50) in assay [1] came out at 0.006 µM. Affinity in assay [2] was put at a Ki of 3 nM.

With `COc1ccc(Br)cc1S(=O)(=O)NC(=O)NC/C=C1\CCCc2cnn(Cc3ccc(Cl)cc3Cl)c21` [Compound #42, (E)-5-bromo-N-((2-(1-(2,4-dichlorobenzyl)-1,4,5,6-tetrahydro-7H-indazol-7-ylidene)ethyl)carbamoyl)-2-methoxybenzenesulfonamide], the IC50 in assay [1] amounted to 0.006 µM. Also, the inhibition constant Ki in assay [2] is 3 nM.

As for `O=C(NS(=O)(=O)c1ccc(Cl)cc1)OC/C=C1\c2c(cnn2Cc2ccc(Cl)cc2Cl)CCC1(F)F` [Compound #81, (E)-2-(1-(2,4-dichlorobenzyl)-6,6-difluoro-1,4,5,6-tetrahydro-7H-indazol-7-ylidene)ethyl ((4-chlorophenyl)sulfonyl)carbamate], the IC50 in assay [1] came to 14.1 µM. Besides, in assay [2], the inhibition constant Ki is > 10000 nM.

As for `O=C(C/C=C1\CCCc2cnn(Cc3ccc(Cl)cc3Cl)c21)NS(=O)(=O)c1cc(F)cc(F)c1` [Compound #19, (E)-3-(1-(2,4-dichlorobenzyl)-1,4,5,6-tetrahydro-7H-indazol-7-ylidene)-N-((3,5-difluorophenyl)sulfonyl)propenamide], in assay [1], the 50% inhibitory concentration (IC50) came to 0.083 µM. The compound further showed an inhibition constant (Ki) in assay [2] of 14 nM.

Take `O=C(NC/C=C1\CCCc2cnn(Cc3ncc(-c4ccccc4)cn3)c21)NS(=O)(=O)c1cc(Cl)c(Cl)s1` [Compound #163, (E)-4,5-dichloro-N-((2-(1-((5-phenylpyrimidin-2-yl)methyl)-1,4,5,6-tetrahydro-7H-indazol-7-ylidene)ethyl)carbamoyl)thiophene-2-sulfonamide]: the Ki in assay [2] is > 10000 nM.

In the case of `COc1nc2ccc(S(=O)(=O)NC(=O)NC/C(F)=C3\CCCc4cnn(Cc5ccc(Cl)cc5Cl)c43)cc2o1` [Compound #178, (Z)—N-((2-(1-(2,4-dichlorobenzyl)-1,4,5,6-tetrahydro-7H-indazol-7-ylidene)-2-fluoroethyl)carbamoyl)-2-methoxybenzo[d]oxazole-6-sulfonamide], in assay [2], the Ki amounted to 6 nM.

`Cn1nc2c(c1Cc1ccc(Cl)cc1Cl)/C(=C(\F)CNC(=O)NS(=O)(=O)c1cc(Cl)c(Cl)s1)COC2` [Compound #189, (E)-4,5-dichloro-N-((2-(3-(2,4-dichlorobenzyl)-2-methyl-2,7-dihydropyrano[3,4-c]pyrazol-4(5H)-ylidene)-2-fluoroethyl)carbamoyl)thiophene-2-sulfonamide] showed a Ki in assay [2] of 1 nM.

Take `Cc1cc(S(=O)(=O)NC(=O)NC/C(F)=C2\COCc3cnn(Cc4ccc(Cl)cc4Cl)c32)sc1Cl` [Compound #166, (E)-5-chloro-N-((2-(1-(2,4-dichlorobenzyl)-1,4-dihydropyrano[4,3-c]pyrazol-7(6H)-ylidene)-2-fluoroethyl)carbamoyl)-4-methylthiophene-2-sulfonamide]: the Ki in assay [2] was 6 nM and 7 nM.
